“Also recorded” adds a separate entry of the source. Where a SMILES comes first, the peptide text is derived from it.
Assays:
[1] = target: T1, human leukocyte elastase (hLE) (Homo sapiens, UniProt P08246); assay: In vitro inhibition of hLE (cleavage of MeOSuc-AAPV-NA); type: biochemical; conditions: for fold decrease in hLE inhibitory activity compared to peptide 6: relative to peptide 6
T1 construct: Neutrophils (1.4 billion) were isolated from whole blood obtained from a single healthy laboratory donor; from tissue; host or cells: neutrophils from whole blood of a single healthy donor
T1 sequence (P08246 30-247 limits assumed): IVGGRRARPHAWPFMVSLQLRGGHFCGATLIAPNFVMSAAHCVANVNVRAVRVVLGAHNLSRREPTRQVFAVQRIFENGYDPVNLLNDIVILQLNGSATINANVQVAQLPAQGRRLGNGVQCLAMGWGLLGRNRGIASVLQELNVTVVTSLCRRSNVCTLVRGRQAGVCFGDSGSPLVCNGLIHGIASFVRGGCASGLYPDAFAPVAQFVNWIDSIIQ
Description: (§1) The enzymatic activity was assayed with MeOSuc-AAPV-NA for hLE determination and Suc-AAPF-NA for hCG determination (both in 100 mM Hepes buffer, pH 7.4, containing 0.05% of the […] detergent Brij-35). The activities of the individual enzymatic fractions were 100% free from cross-contamination. […] The fractions containing hLE and hCG were dialyzed each against 0.1% pyridinium acetate, pH 5.3, divided into 20 aliquots, lyophilized, and stored at −20 ° C. until use.
(v) Inhibition experiments with hLE: Peptides were dissolved in 100 mM Hepes buffer pH 7.4 containing 0.1% Brij-35 with 10%. DMSO to yield 300 μM solutions, which were used to make further dilutions with the same buffer, and 80 μL aliquots were added in duplicates to 96-well plates. The substrate, 600 μM MeOSuc-AAPV-NA in the same buffer with 5% DMSO, was added to each well in addition to the blank wells, and the plate was placed in the plate reader equilibrated to 37 C (Dynateck MR-6000). Lyophilized aliquots of hLE were dissolved in 1600 μL of 100 mM Hepes buffer without DMSO, and 80 μL of the enzyme solution was added to the peptides and substrate to initiate the reaction. […] The final volume was 240 μL containing: 5% DMSO, 1-100 μM of peptide, 200 μM substrate, and 0.75 μg (˜25 picomol) enzyme.
(viii) Calculations: For hLE, V is determined by fitting a linear equation to the first 6 time-points (10 min) of the kinetics data using the least squares method. […] Several inhibitor concentration in duplicates and two control wells were used to fit a linear equation to graphs of Vo/Vi−1 vs. [I] for each inhibitor using the least squares method (8 data points for each inhibitor). From calculating the error in the slope of the equation, the relative error for Ki was deduced:
Ki={slope*(1+[S]/Km)}^−1because Ki=[I]*{(1+[S]/Km)*(Vo/Vi−1)}^−1.
The hLE inhibitory capability of CRP-derived peptides was evaluated by inhibiting the enzymatic cleavage of MeOSuc-AAPV-NA as described in Materials and Methods (section v).

[2] = target: T2, human leukocyte cathepsin G (hCG) (Homo sapiens, UniProt P08311); assay: In vitro inhibition of hCG (cleavage of Suc-AAPF-NA); type: biochemical
T2 construct: Neutrophils (1.4 billion) were isolated from whole blood obtained from a single healthy laboratory donor; from tissue; host or cells: neutrophils from whole blood of a single healthy donor
T2 sequence (P08311 21-243 limits assumed): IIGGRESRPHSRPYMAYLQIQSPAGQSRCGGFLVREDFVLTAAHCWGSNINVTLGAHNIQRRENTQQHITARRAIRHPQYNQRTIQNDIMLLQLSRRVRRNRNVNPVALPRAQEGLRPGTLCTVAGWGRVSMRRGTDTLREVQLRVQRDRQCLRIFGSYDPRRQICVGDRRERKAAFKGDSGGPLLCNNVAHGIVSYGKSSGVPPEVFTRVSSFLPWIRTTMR
Description: as §1
vi) Inhibition experiments with hCG: Similar conditions to hLE inhibition experiments were used except the substrate: 80 μL of 1.80 mM Suc-AAPF-NA. The enzyme was dissolved in 800 μL buffer, and the reaction was monitored every 6 min for 1 hour. The final volume was 240 μL containing: 5% DMSO, 1-100 μM peptide, 600 μM substrate, and 1.2 μg enzyme (about 40 picomol).
For hCG, V is determined by fitting a quadratic equation to the total kinetic data (60 min), using the least squares method and calculating V at t=0.
The hCG inhibitory capability of CRP-derived peptides was evaluated by inhibiting the enzymatic cleavage of Suc-AAPF-NA as described in Materials and Methods (section vi).

[3] = hLE Ki [μM], Table 1, substrate MeOSuc-AAPV-NA 200 μM, pH 7.4, 37 C
[4] = hCG Ki [μM], Table 1, substrate Suc-AAPF-NA 600 μM, pH 7.4
[5] = hLE Ki [μM], Table 2, substrate MeOSuc-AAPV-NA 200 μM, pH 7.4, 37 C

Row | Compound | Ki [1, 3] [µM] | Ki [2, 4] [µM] | hLE inhibitory activity (in words) [1] | further results
1 | CC[C@H](C)[C@H](NC(=O)[C@H](CO)NC(=O)[C@H](Cc1ccc(O)cc1)NC(=O)CNC(=O)[C@H](CCCNC(=N)N)NC(=O)[C@@H](NC(=O)[C@H](CO)NC(=O)[C@H](CO)NC(=O)[C@H](CC(C)C)NC(=O)[C@H](CCC(=O)O)NC(=O)[C@@H](NC(=O)[C@H](Cc1ccc(O)cc1)NC(=O)[C@H](Cc1ccccc1)NC(=O)[C@H](Cc1c[nH]cn1)NC(=O)[C@@H](N)CC(C)C)[C@@H](C)O)[C@@H](C)O)C(=O)O [Peptide 1, Leu-His-Phe-Tyr-Thr-Glu-Leu-Ser-Ser-Thr-Arg-Gly-Tyr-Ser-Ile] (H-LHFYTELSSTRGYSI-OH) | > 200 | > 200 | – | –
2 | CC[C@H](C)[C@H](NC(=O)[C@H](CO)NC(=O)[C@H](Cc1ccc(O)cc1)NC(=O)CNC(=O)[C@H](CCCNC(=N)N)NC(=O)[C@@H](NC(=O)[C@H](CO)NC(=O)[C@H](CO)NC(=O)[C@H](CC(C)C)NC(=O)[C@@H](N)CCC(=O)O)[C@@H](C)O)C(=O)N[C@@H](Cc1ccccc1)C(=O)N[C@@H](CO)C(=O)N[C@@H](Cc1ccc(O)cc1)C(=O)N[C@@H](C)C(=O)N[C@H](C(=O)O)[C@@H](C)O [Peptide 2, Glu-Leu-Ser-Ser-Thr-Arg-Gly-Tyr-Ser-Ile-Phe-Ser-Tyr-Ala-Thr] (H-ELSSTRGYSIFSYAT-OH) | > 200 | > 200 | – | –
3 | CC[C@H](C)[C@H](NC(=O)[C@H](CO)NC(=O)[C@H](Cc1ccc(O)cc1)NC(=O)CNC(=O)[C@@H](N)CCCNC(=N)N)C(=O)N[C@@H](Cc1ccccc1)C(=O)N[C@@H](CO)C(=O)N[C@@H](Cc1ccc(O)cc1)C(=O)N[C@@H](C)C(=O)N[C@H](C(=O)N[C@@H](CCCCN)C(=O)N[C@@H](CCCNC(=N)N)C(=O)N[C@@H](CCC(N)=O)C(=O)N[C@@H](CC(=O)O)C(=O)N[C@@H](CC(N)=O)C(=O)O)[C@@H](C)O [Peptide 3, Arg-Gly-Tyr-Ser-Ile-Phe-Ser-Tyr-Ala-Thr-Lys-Arg-Gln-Asp-Asn] (H-RGYSIFSYATKRQDN-OH) | > 200 | > 200 | – | –
4 | CC[C@H](C)[C@H](NC(=O)[C@H](CC(C)C)NC(=O)[C@@H](NC(=O)[C@H](CCC(=O)O)NC(=O)[C@H](CC(N)=O)NC(=O)[C@H](CC(=O)O)NC(=O)[C@H](CCC(N)=O)NC(=O)[C@H](CCCNC(=N)N)NC(=O)[C@H](CCCCN)NC(=O)[C@@H](NC(=O)[C@H](C)NC(=O)[C@H](Cc1ccc(O)cc1)NC(=O)[C@H](CO)NC(=O)[C@@H](N)Cc1ccccc1)[C@@H](C)O)[C@@H](C)CC)C(=O)N[C@@H](Cc1ccccc1)C(=O)O [Peptide 4, Phe-Ser-Tyr-Ala-Thr-Lys-Arg-Gln-Asp-Asn-Glu-Ile-Leu-Ile-Phe] (H-FSYATKRQDNEILIF-OH) | > 200 | > 200 | – | –
5 | CC[C@H](C)[C@H](NC(=O)[C@H](CC(=O)O)NC(=O)[C@H](CCCCN)NC(=O)[C@H](CO)NC(=O)[C@H](Cc1c[nH]c2ccccc12)NC(=O)[C@H](Cc1ccccc1)NC(=O)[C@@H](NC(=O)[C@H](CC(C)C)NC(=O)[C@@H](NC(=O)[C@H](CCC(=O)O)NC(=O)[C@H](CC(N)=O)NC(=O)[C@H](CC(=O)O)NC(=O)[C@H](CCC(N)=O)NC(=O)[C@H](CCCNC(=N)N)NC(=O)[C@@H](N)CCCCN)[C@@H](C)CC)[C@@H](C)CC)C(=O)O [Peptide 5, Lys-Arg-Gln-Asp-Asn-Glu-Ile-Leu-Ile-Phe-Trp-Ser-Lys-Asp-Ile] (H-KRQDNEILIFWSKDI-OH; N-terminus and C-terminus assumed) | – | – | two orders of magnitude less potent than peptide 6; also recorded: lowered the inhibitory capability by more than one order of magnitude | Ki ([1]; hLE inhibitory activity range): 50 to 100 µM; Ki ([2]; hCG inhibitory activity range): 150 to 200 µM
6 | CC[C@H](C)[C@H](NC(=O)[C@H](CC(=O)O)NC(=O)[C@H](CCCCN)NC(=O)[C@H](CO)NC(=O)[C@H](Cc1c[nH]c2ccccc12)NC(=O)[C@H](Cc1ccccc1)NC(=O)[C@@H](NC(=O)[C@H](CC(C)C)NC(=O)[C@@H](NC(=O)[C@@H](N)CC(=O)O)[C@@H](C)CC)[C@@H](C)CC)C(=O)NCC(=O)N[C@@H](Cc1ccc(O)cc1)C(=O)N[C@@H](CO)C(=O)N[C@@H](Cc1ccccc1)C(=O)N[C@H](C(=O)O)[C@@H](C)O [Peptide 18, Asp-Ile-Leu-Ile-Phe-Trp-Ser-Lys-Asp-Ile-Gly-Tyr-Ser-Phe-Thr] (H-DILIFWSKDIGYSFT-OH; N-terminus and C-terminus assumed) | – | – | – | fold decrease in hLE inhibitory activity compared to peptide 6 [1]: 10 fold
7 | CC[C@H](C)[C@H](NC(=O)[C@H](CC(=O)O)NC(=O)[C@H](CCCCN)NC(=O)[C@@H]1CCCN1C(=O)[C@H](Cc1c[nH]c2ccccc12)NC(=O)[C@H](Cc1ccccc1)NC(=O)[C@@H](NC(=O)[C@H](CC(C)C)NC(=O)[C@@H](NC(=O)[C@@H](N)CCC(=O)O)[C@@H](C)CC)[C@@H](C)CC)C(=O)NCC(=O)N[C@@H](Cc1ccc(O)cc1)C(=O)N[C@@H](CO)C(=O)N[C@@H](Cc1ccccc1)C(=O)N[C@H](C(=O)O)[C@@H](C)O [Peptide 19, Glu-Ile-Leu-Ile-Phe-Trp-Pro-Lys-Asp-Ile-Gly-Tyr-Ser-Phe-Thr] (H-EILIFWPKDIGYSFT-OH; N-terminus and C-terminus assumed) | – | – | two orders of magnitude loss of inhibitory activity | Ki [1, 5]: > 200 µM
8 | CC[C@H](C)[C@H](NC(=O)CNC(=O)[C@H](Cc1ccc(O)cc1)NC(=O)[C@H](CO)NC(=O)[C@H](Cc1ccccc1)NC(=O)[C@@H](N)[C@@H](C)O)C(=O)N[C@@H](CC(=O)O)C(=O)N[C@@H](CCCCN)C(=O)N[C@@H](CO)C(=O)N[C@@H](Cc1c[nH]c2ccccc12)C(=O)N[C@@H](Cc1ccccc1)C(=O)N[C@H](C(=O)N[C@@H](CC(C)C)C(=O)N[C@H](C(=O)N[C@@H](CCC(=O)O)C(=O)O)[C@@H](C)CC)[C@@H](C)CC [Peptide 24, Thr-Phe-Ser-Tyr-Gly-Ile-Asp-Lys-Ser-Trp-Phe-Ile-Leu-Ile-Glu] (H-TFSYGIDKSWFILIE-OH; N-terminus and C-terminus assumed) | – | – | – | fold decrease in hLE inhibitory activity compared to peptide 6 [1]: 30 fold
9 | CC[C@H](C)[C@H](NC(=O)[C@H](CC(=O)O)NC(=O)[C@H](C)NC(=O)[C@H](CO)NC(=O)[C@H](Cc1c[nH]c2ccccc12)NC(=O)[C@H](Cc1ccccc1)NC(=O)[C@@H](NC(=O)[C@H](CC(C)C)NC(=O)[C@@H](NC(=O)[C@@H](N)CCC(=O)O)[C@@H](C)CC)[C@@H](C)CC)C(=O)O [Peptide 25, Glu-Ile-Leu-Ile-Phe-Trp-Ser-Ala-Asp-Ile] (H-EILIFWSADI-OH; N-terminus and C-terminus assumed) | – | – | slightly more potent than peptide 14 | Ki [1, 5]: 3 ± 0.5 µM
10 | CC[C@H](C)[C@H](NC(=O)[C@H](CC(=O)O)NC(=O)[C@@H](NC(=O)[C@H](CO)NC(=O)[C@H](Cc1c[nH]c2ccccc12)NC(=O)[C@H](Cc1ccccc1)NC(=O)[C@@H](NC(=O)[C@H](CC(C)C)NC(=O)[C@@H](NC(=O)[C@@H](N)CCC(=O)O)[C@@H](C)CC)[C@@H](C)CC)C(C)C)C(=O)O [Peptide 26, Glu-Ile-Leu-Ile-Phe-Trp-Ser-Val-Asp-Ile] (H-EILIFWSVDI-OH; N-terminus and C-terminus assumed) | – | – | slightly more potent than peptide 14 | –

Source: patent US6528618B1, “Anti-inflammatory peptides derived from C-reactive protein” (Yeda Research and Development Co. Ltd., priority 1997, dated 2003)
